Laboratory results taken from patent EP0108147B1, “Use of a protoberberine alkaloid and composition containing same” (MAROKO, Peter R., priority 1982, dated 1983).

Key:
dogs [1] = test: Protocol RK: systemic arterial pressure and heart rate, pressure not held constant, two doses; type: in vivo
Text: The protocol was the same as described above except that in these dogs, contrary to the previously reported series, the systolic arterial pressure was not maintained constant. Also, the dogs were instrumented only with an electrocardiogram (with lead aVF being constantly recorded), and polyethylene cannula in aorta introduced through the carotid artery to measure aortic pressures, and another cannula in the jugular vein for drug administration. Average heart rate (measured by continuously monitored electrocardiographic lead aVF) was reduced from 146 ± 4 (mean ± 1 S.E.M.) to […] (p <0.1) after the first 45 minutes. After the second 45 minutes heart beat rate was further reduced to […] (p <0.01 ).

dogs [2] = test: Supraventricular arrhythmias by topical application of aconitine to the atria; type: in vivo; conditions: intraveneous bolus 1-5 mg/Kg; aconitine (0.04%) solution
LD50, intravenous bolus = conditions: rat, in vivo
trained conscious dogs = test: Protocol F: multiple gated radionuclide ventriculography (MUGR), ejection fraction in conscious dogs without failing heart; type: in vivo
Method: To determine further the effects of berberine on patients, experiments were carried out on conscious dogs (Protocol F) and the measurement of left ventricular performance was assessed atraumatically using the multiple gated radionuclide ventriculography (MUGR) similarly to what is done in patients. The multiple gated radionuclide ventriculography is used in patients to assess their cardiac (i.e. left ventricular) performance by analyzing in an. atraumatic manner, the ejection fraction (EF) of the left ventricle. This technique substituted the analysis of ejection fraction by contrast angiography since the latter can be done only in the catheterization laboratory with the patient submitted to the introduction of catheters into his arteries and left ventricular cavity as well as an injection of a radio-opaque dye. MUGR consists in using red blood cells labelled with stannous radioactive technetium. These red blod cells can be labelled either in vivo or in vitro prior to injection. The blood that is now emitting gamma radiation can be detected by an external gamma camera. This device can sum many cycles of the heart beat obtaining an average cycle. Then this cycle is divided in time intervals so that, as an example, the end systolic and the end diastolic frames can be identified. Ejection fraction is the end distolic minus the end systolic volumes divided by the end diastolic volume. It indicates therefore the pumping effectiveness of the left ventricle since it measures the fraction (or the percent if multiplied by 100) of the volume of blood that is expelled from the left ventricular cavity. Experiments were carried out in trained conscious dogs. 14.8.108 Bg (40 mCi) of […] used to label red blood cells that were then injected intravenously. […] The images were acquired using fixed density of the left ventricle. They were measured in quadruplicate and averaged. The external gamma camera used was Ohio Nuclear (model VIP 560).

dogs [3] = test: Arrhythmias produced by intravenous infusion of aconitine; type: in vivo
Method: To examine the effects of berberine on arrhythmias produced by intravenous infusion of aconitine in fifteen dogs after development of VEA, of at least 50% of the beats or more, the dogs were given berberine intravenously as a bolus (1-5 mg/Kg) or 5% dextrose in water.

[4] = Microneucleus test with Ames test on urine for mutagenic potential
[5] = test system: dogs with acute left ventricular failure; test: MUGR ejection fraction in dogs with acute left ventricular failure after coronary embolization; type: in vivo; conditions: for EF: 0.2 mg/Kg/min
Method: Nevertheless, to verify the response of dogs with acute heart failure with this sophisticated technique, this condition was provoked by previous embolization into the left coronary artery (as described below in protocol HV). thereafter, the effect of berberine infusion was analyzed after embolization. […] Berberine was infused in a rate of 0.2 mg/Kg/min for 30 minutes and MUGR was repeated after 2, 15, 22 and 28 minutes of infusion.
Six dogs were studied using this technique (Table XV). […] The thirty minute infusion of berberine (0.2 mg/Kg/min) was administered. During this period four radionuclide ventriculographies were obtained and averaged. After discontinuation of the infusion again four radionuclide ventriculographies were obtained in the next thirty minutes and averaged.

dogs [6] = test: Lethal dose, repetitive intravenous boluses; conditions: repetitive intravenous boluses within 4 hours
NaK-ATPase = conditions: Cohen et al., Biochem. Pharmacol. 27: 2555-2558, 1978; cited from earlier work
dogs [7] = test: Three week toxicology study in 12 dogs; type: in vivo; conditions: 0.2 mg/kg/min for 60 minutes twice daily for 3 weeks
[8] = test system: chronically instrumented conscious dogs; test: Oral administration in chronically instrumented conscious dogs; type: in vivo
[9] = second dog (Figure VI), after 15 minutes

COc1ccc2cc3[n+](cc2c1OC)CCc1cc2c(cc1-3)OCO2 [berberine]
mean pressure (dogs [1]; after 90 minutes, from 114 ± 7): 96 ± 5 mmHg
pulse pressure (systolic minus diastolic pressure) (dogs [1]; end of the experiment, from an average of 28): 35 mmHg
Mean systemic arterial pressure (dogs [1]; first dose, 5 minutes, from 114 ± 7): 87 ± 5 mmHg
Mean systemic arterial pressure (dogs [1]; first dose, 10 minutes): 93 ± 4 mmHg
Mean systemic arterial pressure (dogs [1]; first dose, 15 minutes): 92 ± 5 mmHg
Mean systemic arterial pressure (dogs [1]; first dose, 30 minutes): 101 ± 7 mmHg
Mean systemic arterial pressure (dogs [1]; first dose, 45 minutes): 101 ± 7 mmHg
Mean systemic arterial pressure (dogs [1]; second dose, 5 minutes): 94 ± 4 mmHg
Mean systemic arterial pressure (dogs [1]; second dose, 10 minutes): 95 ± 6 mmHg
Mean systemic arterial pressure (dogs [1]; second dose, 15 minutes): 95 ± 5 mmHg
Mean systemic arterial pressure (dogs [1]; second dose, 30 minutes): 97 ± 5 mmHg
Mean systemic arterial pressure (dogs [1]; second dose, 45 minutes): 97 ± 5 mmHg
atrial ectopic beats, atrial tachycardia or atrial fibrillation (dogs [2]): effective in abolishing these arrhythmias
LD50 (LD50, intravenous bolus): ~55 mg/kg
ejection fraction (EF), average (trained conscious dogs; one dog, after first infusion): 44 ± 2%
ejection fraction (EF), average (trained conscious dogs; one dog, after second infusion): 40 ± 2%
increase of EF versus the pre-berberine period (trained conscious dogs; one dog, first infusion): 33%
ejection fraction (EF) (trained conscious dogs; one dog, first infusion 0.7 mg/Kg/min 5 minutes, 1st reading (5 min), pre-berberine 33 ± 2): 46%
ejection fraction (EF) (trained conscious dogs; one dog, first infusion, 2nd reading (15 min)): 47%
ejection fraction (EF) (trained conscious dogs; one dog, first infusion, 3rd reading (30 min)): 44%
ejection fraction (EF) (trained conscious dogs; one dog, first infusion, 4th reading (45 min)): 38%
ejection fraction (EF) (trained conscious dogs; one dog, second infusion, 1st reading): 46%
ejection fraction (EF) (trained conscious dogs; one dog, second infusion, 2nd reading): 37%
ejection fraction (EF) (trained conscious dogs; one dog, second infusion, 3rd reading): 40%
ejection fraction (EF) (trained conscious dogs; one dog, second infusion, 4th reading): 38%
ejection fraction (trained conscious dogs; second dog (Figure VI), 0.7 mg/Kg/min for 15 minutes, 1st reading, from 50): 54%
ejection fraction (trained conscious dogs; second dog (Figure VI), 2nd reading): 65%
ejection fraction (trained conscious dogs; [9]): 70%
increase of ejection fraction (trained conscious dogs; [9]): 40%
dogs with regression of the arrhythmias to normal sinus or supraventricular rhythm (dogs [3]; intravenous bolus 1-5 mg/Kg after VEA of at least 50% of the beats, controls 20%): 78%
ventricular fibrillation (dogs [3]; two cases): ventricular fibrillation reverted to normal sinus rhythm
mutagenic potential [4]: negative
EF ([5]; another dog, at 2, 39 after embolization): 60%
EF ([5]; another dog, at 15): 62%
EF ([5]; one dog, 2 minutes of infusion, 27 after embolization): 35%
EF ([5]; one dog, 15 minutes): 37%
EF ([5]; one dog, 22 minutes): 39%
EF ([5]; one dog, 28 minutes): 38%
increase of EF ([5]; six dogs): ~50%
left ventricular ejection fraction (EF) ([5]; six dogs, during 30 minute infusion 0.2 mg/Kg/min, from 27 ± 3): 40 ± 3%
EF after the discontinuation of infusion ([5]; six dogs, next half an hour): continued to be significantly elevated
average dose resulting in death due to arterial systemic hypotension (dogs [6]): 120 mg/kg
inhibition of NaK-ATPase activity (NaK-ATPase): inactive
side effects (electrolytes, heptatic function, renal function, proteins, coagulation, blood cells, platelet count) (dogs [7]): no side effects were observed
tissues at post-mortem (dogs [7]): normal histologically

COc1cc2c(cc1O)C[C@H]1c3cc(O)c(OC)cc3CCN1C2 [coreximine]
oral effects compared with berberine ([8]; dog, in vivo, po): more marked than those of berberine
increase of LV dP/dt ([8]; oral 5 mg/kg twice daily, after the first day): 25%
